The values that follow come from ChEMBL document CHEMBL3526012, “Metabolism of (2S)-pterosin A: identification of the phase I and phase II metabolites in rat urine” (Drug Metab Dispos, 2012).

A short description of data set [1]: Drug recovery in Wistar rat urine assessed as retention time treated with (2S)-Pterosin at 100 mg/kg, po administered via gavage measured up to 24 hrs by HRESIMS analysis. Also on record: dose 100 mg/kg, route oral. As to conditions: in vivo; call rule not given here. The data set is classed as ADME, organism-based.
A short description of data set [2]: Drug recovery in Wistar rat urine treated with (2S)-Pterosin at 100 mg/kg, po administered via gavage measured up to 24 hrs by reverse-phase HPLC analysis. The data set is classed as ADME, organism-based. More on the design: dose 100 mg/kg, route oral. The settings on record: in vivo.
A further data set relates to HeLa. As to the kind of experiment: Cytotoxicity against human HeLa cells. The data set is classed as cell-based.
A short description of data set [3]: Drug recovery in Wistar rat urine assessed as retention time at 100 mg/kg, po administered via gavage measured up to 24 hrs by HRESIMS analysis. The data set is classed as ADME, organism-based. The settings on record: in vivo. Also on record: dose 100 mg/kg, route oral.
Data set [4] can be described thus: Drug recovery in Wistar rat urine at 100 mg/kg, po administered via gavage measured up to 24 hrs by reverse-phase HPLC analysis. The data set is classed as ADME, organism-based. More on the design: dose 100 mg/kg, route oral. The settings on record: in vivo.
Data set [5] is described as follows: Drug recovery in Wistar rat urine at 100 mg/kg, po administered via gavage measured up to 24 hrs by HRESIMS analysis. The data set is classed as ADME, organism-based. Also on record: dose 100 mg/kg, route oral. The settings on record: read-out: Drug recovery.
The nature of data set [6]: Cytotoxicity against human HL60 cells. The settings on record: HL-60. The data set is classed as cell-based.

Values after ≈ are worked out from the molar mass of the structure shown.

Take `Cc1c(CCO)c(CO)cc2c1C(=O)C(C)C2` (racemic): in data set [1], the Retention_time is reported as 29.61 min. Also, the Drug recovery entry in data set [2] is “metabolite_detected”.
As for `Cc1c(CCO)c(CO)cc2c1C(=O)[C@](C)(CO)C2`, the Retention_time in data set [1] stood at 20.2 min. The Drug recovery entry in data set [2] is recorded as “metabolite_detected”.
For the molecule `Cc1cc2c(c(C)c1CC(=O)O)C(=O)C(C)C2` (racemic), the Retention_time in data set [1] came to 48.39 min. Also, in the data set with HeLa, the half-maximal inhibitory concentration (IC50) (commonly the concentration that inhibits the measured activity by half) amounted to 30 µg/mL (≈ 129 µM). Besides, the Drug recovery entry in data set [2] is listed as “metabolite_detected”.
In the case of `Cc1cc2c(c(C)c1CCO)C(=O)[C@](C)(CO)[C@H]2O`, in data set [1], the Retention_time is reported as 14.12 min. In addition, the Drug recovery entry in data set [2] is listed as “metabolite_detected”.
For the molecule `Cc1c2c(cc3c1C(=O)[C@](C)(CO)C3)COC(=O)C2`, the Retention_time in data set [1] is 23.37 min. The Drug recovery entry in data set [2] is recorded as “metabolite_detected”.
For `Cc1cc2c(c(C)c1CC(=O)O)C(=O)[C@](C)(CO)C2`, in that order: 37.27 min and “metabolite_detected”.
For `Cc1cc2c(c(C)c1CCO)C(=O)[C@@H](C)[C@@H]2O`, in data set [1], the Retention_time was found to be 27.6 min. Further, in data set [2], the Drug recovery result is on record as “metabolite_detected”.
Taken in the same sequence, the figures for `Cc1cc2c(c(C)c1CC(=O)O[C@@H]1O[C@H](C(=O)O)[C@@H](O)[C@H](O)[C@H]1O)C(=O)[C@](C)(CO)C2` were 24.6 min and “metabolite_detected”.
Take `Cc1cc2c(c(C)c1CCO[C@@H]1O[C@H](C(=O)O)[C@@H](O)[C@H](O)[C@H]1O)C(=O)[C@](C)(CO)C2`: the Retention_time in data set [1] came out at 29.61 min. In addition, the Drug recovery entry in data set [2] was “metabolite_detected”.
Consider `COC(=O)Cc1c(C)cc2c(c1C)C(=O)[C@](C)(CO)C2`, for which the Retention_time in data set [1] was determined as 45.33 min. The Drug recovery result in data set [2] is listed as “metabolite_detected”.
With `Cc1cc2c(c(C)c1CCO)C(=O)[C@](C)(CO[C@@H]1O[C@H](C(=O)O)[C@@H](O)[C@H](O)[C@H]1O)C2`, in data set [1], the Retention_time stood at 32.08 min. The Drug recovery entry in data set [2] was “metabolite_detected”.
For the molecule `Cc1cc2c(c(C)c1CCO)C(=O)[C@](C)(CO)[C@@H]2O`, the Retention_time in data set [1] was 20.74 min. In data set [2], the Drug recovery entry is “metabolite_detected”.
Consider `Cc1cc2c(c(C)c1CC(=O)O)C(=O)[C@](C)(CO)[C@@H]2O`, for which, in data set [1], the Retention_time stood at 26.11 min. Besides, the Drug recovery entry in data set [2] is “metabolite_detected”.
Take `Cc1cc2c(c(C)c1CCO)C(=O)[C@](C)(CO)C2`: the Retention_time in data set [3] is recorded as 36.51 min. For the same molecule, in data set [4], the Drug recovery entry is reported as “Active”. In addition, the dose excreted at 24 h in data set [5] came to 2.64%.
In data set [6], `Cc1cc2c(c(C)c1CCO)C(=O)C(C)C2` (racemic) yielded an IC50 of 8.7 µg/mL (≈ 39.9 µM). Also, the Retention_time in data set [1] is on record as 49.54 min. In addition, the Drug recovery result in data set [2] is recorded as “metabolite_detected”.
Consider `Cc1cc2c(c(C)c1C(O)CO)C(=O)C(C)C2` (racemic), for which, in data set [1], the Retention_time stood at 35.09 min. The Drug recovery result in data set [2] is “metabolite_detected”.
Consider `Cc1c2c(cc3c1C(=O)[C@](C)(CO)C3)C(=O)OCC2`, for which, in data set [1], the Retention_time is recorded as 29.61 min. The Drug recovery result in data set [2] is reported as “metabolite_detected”.
Taken in the same sequence, the figures for `Cc1cc2c(c(C)c1CCO)C(=O)[C@H](C)[C@@H]2O` were 25.27 min and “metabolite_detected”.
Taken in the same sequence, the figures for `Cc1cc2c(c(C)c1C)C(=O)[C@](C)(CO)[C@@H]2O` were 46.2 min and “metabolite_detected”.
In the case of `Cc1cc2c(c(C)c1CCO[C@@H]1O[C@H](C(=O)O)[C@@H](O)[C@H](O)[C@H]1O)C(=O)C(C)C2` (stereo partly drawn), the Retention_time in data set [1] is 44.2 min. Besides, in data set [2], the Drug recovery entry is recorded as “metabolite_detected”.
